# In EPA's ToxRefDB 2:
# Key:
# mouse [1] = conditions: Subchronic oral toxicity in rodents, b6c3f1, Feed, dose end: 12 week, group: systemic
# rat [2] = conditions: Combined chronic toxicity/carcinogenicity; fischer; Oral; Feed; dose end: 2 year; group: systemic; systemic / in life observation / body weight / body weight
# mouse [3] = conditions: Combined chronic toxicity/carcinogenicity, b6c3f1, Oral, Feed, dose end: 2 year, group: systemic
# rat [4] = conditions: Subchronic oral toxicity in rodents, fischer, Feed, dose end: 12 week, group: systemic
# rat [5] = conditions: Developmental neurotoxicity study; sprague dawley; Injection; Intraperitoneal; dose end: 74 PND; group: cannot be grouped; reproductive / reproductive performance / aborted / aborted + developmental / offspring survival late / [other] / [other] + systemic / in …
# mouse [6] = conditions: Prenatal developmental toxicity study; cd1; Oral; Gavage/Intubation; dose end: 17 GD; group: developmental; systemic / in life observation / clinical signs / aggressive behavior + systemic / organ weight / testes / absolute
# rat [7] = conditions: Multigenerational reproductive toxicity study, sprague dawley, Oral, Feed, dose end: 2 generation
# rat [8] = conditions: Subchronic oral toxicity in rodents, sprague dawley, Feed, dose end: 13 week, group: systemic
# rat [9] = conditions: Sub-acute repeat dose toxicity; wistar; Oral; Feed; dose end: 21 day; group: systemic; systemic / clinical chemistry / [other] / [other] + systemic / clinical chemistry / 5' nucleotidase / 5' nucleotidase + systemic / organ …
# rat [10] = conditions: Prenatal developmental toxicity study, sprague dawley, Oral, Gavage/Intubation, dose end: 20 GD
# rat [11] = conditions: Subchronic oral toxicity in rodents, sprague dawley, Feed, dose end: 13 week, group: systemic, systemic / in life observation / body weight / body weight + systemic / in life observation / body weight / body weight gain + systemic / in…
# rat [12] = conditions: Subchronic oral toxicity in rodents, sprague dawley, Feed, dose end: 3 month, group: systemic, systemic / in life observation / body weight / body weight + systemic / in life observation / body weight / body weight gain
# dog = conditions: Subchronic oral toxicity in nonrodent, beagle, Feed, dose end: 16 week, group: systemic, systemic / in life observation / body weight / body weight
# [13] = systemic / in life observation / body weight / body weight gain
# [14] = systemic / in life observation / body weight / body weight + systemic / pathology microscopic / liver / carcinoma
# [15] = systemic / pathology microscopic / liver / carcinoma
# [16] = systemic / in life observation / body weight / body weight gain + systemic / pathology microscopic / bone marrow / hyperplasia + systemic / …
# [17] = group: offspring, systemic / in life observation / clinical signs / [other]
# [18] = group: parental, systemic / organ weight / liver / relative to body weight
# [19] = systemic / in life observation / body weight / body weight gain + systemic / in life observation / food consumption / food efficiency + …
# [20] = group: developmental, developmental / developmental malformation / bone / delayed ossification + developmental / developmental malformation / bone / supernumerary…
# [21] = group: maternal, reproductive / reproductive performance / postimplantation loss / postimplantation loss + reproductive / reproductive performance / …
# [22] = group: maternal, systemic / clinical chemistry / [other] / [other] + systemic / organ weight / liver / absolute + systemic / organ weight / liver / relative …
smiles,measurement,setting,value
O=S(=O)([O-])c1ccc(N=Nc2c(O)ccc3cc(S(=O)(=O)[O-])ccc23)cc1.[Na+].[Na+] [FD&C Yellow 6],LEL,mouse [1]; [13],900 mg/kg/day
same,LOAEL,mouse [1]; [13],15000 mg/kg/day
same,NEL,mouse [1]; [13],< 900 mg/kg/day
same,NOAEL,mouse [1]; systemic / in life observation / body weight / body weight gain + systemic / in life observation / body weight / body weight,7500 mg/kg/day
same,LEL,rat [2],1250 mg/kg/day
same,LOAEL,rat [2],> 1250 mg/kg/day
same,NEL,rat [2],625 mg/kg/day
same,NOAEL,rat [2],≥ 1250 mg/kg/day
same,LOAEL,mouse [3]; [14],> 3750 mg/kg/day
same,NOAEL,mouse [3]; [14],≥ 3750 mg/kg/day
same,LEL,mouse [3]; [15],1880 mg/kg/day
same,NEL,mouse [3]; [15],< 1880 mg/kg/day
same,LEL,rat [4]; [13],625 mg/kg/day
same,LOAEL,rat [4]; [13],2500 mg/kg/day
same,NEL,rat [4]; [16],300 mg/kg/day
same,NOAEL,rat [4]; [16],1250 mg/kg/day
NC(=O)NO [Hydroxyurea],LEL,rat [5],2000 mg/kg/day
same,LOAEL,rat [5],> 2000 mg/kg/day
same,NEL,rat [5],< 2000 mg/kg/day
same,NOAEL,rat [5],≥ 2000 mg/kg/day
"Clc1ccc(C(c2ccccc2Cl)C(Cl)(Cl)Cl)cc1 (stereo not given) [o,p'-DDT]",LEL,mouse [6],18 mg/kg/day
same,LOAEL,mouse [6],> 180 mg/kg/day
same,NEL,mouse [6],< 18 mg/kg/day
same,NOAEL,mouse [6],≥ 180 mg/kg/day
same,LEL,rat [7]; [17],10 mg/kg/day
same,LOAEL,rat [7]; [17],> 10 mg/kg/day
same,NEL,rat [7]; [17],1 mg/kg/day
same,NOAEL,rat [7]; [17],≥ 10 mg/kg/day
same,LEL,rat [7]; [18],10 mg/kg/day
same,LOAEL,rat [7]; [18],> 10 mg/kg/day
same,NEL,rat [7]; [18],1 mg/kg/day
same,NOAEL,rat [7]; [18],≥ 10 mg/kg/day
"Cn1sc2c(c1=O)CCC2 [2-Methyl-5,6-dihydro-2H-cyclopenta[d][1,2]thiazol-3(4H)-one]",LOAEL,rat [8]; systemic / in life observation / body weight / body weight gain + systemic / in life observation / food consumption / food efficiency,23.2 mg/kg/day
same,LEL,rat [8]; [19],23.2 mg/kg/day
same,NEL,rat [8]; [19],4.6 mg/kg/day
same,NOAEL,rat [8]; [19],4.6 mg/kg/day
CCCCCCOC(=O)c1ccccc1C(=O)OCCCCCC [Dihexyl phthalate],LEL,rat [9],1000 mg/kg/day
same,LOAEL,rat [9],> 1000 mg/kg/day
same,NEL,rat [9],< 1000 mg/kg/day
same,NOAEL,rat [9],≥ 1000 mg/kg/day
same,LEL,rat [10]; [20],250 mg/kg/day
same,LOAEL,rat [10]; [20],250 mg/kg/day
same,NEL,rat [10]; [20],< 250 mg/kg/day
same,NOAEL,rat [10]; [20],< 250 mg/kg/day
same,LOAEL,rat [10]; [21],> 750 mg/kg/day
same,NOAEL,rat [10]; [21],≥ 750 mg/kg/day
same,LEL,rat [10]; [22],250 mg/kg/day
same,NEL,rat [10]; [22],< 250 mg/kg/day
CCc1cccc(C)c1N(C(=O)CCl)[C@@H](C)COC [S-Metolachlor],LEL,rat [11],150 mg/kg/day
same,LOAEL,rat [11],150 mg/kg/day
same,NEL,rat [11],15 mg/kg/day
same,NOAEL,rat [11],15 mg/kg/day
same,LEL,rat [12],259 mg/kg/day
same,LOAEL,rat [12],259 mg/kg/day
same,NEL,rat [12],23.4 mg/kg/day
same,NOAEL,rat [12],23.4 mg/kg/day
same,LEL,dog,31.1 mg/kg/day
same,LOAEL,dog,> 62 mg/kg/day
same,NEL,dog,15.1 mg/kg/day
same,NOAEL,dog,≥ 62 mg/kg/day
